Drawing on US11130741B2 (Bioimics AB, priority 2016, dated 2021), this text covers IC50 and MIC for seven compounds.

The subject of test [1] is E. coli RNase P RNA, M1 RNA. Nature of the test: Inhibition of bacterial RNase P activity, IC50 determination (cleavage of pATSerUG by M1 RNA). Type of test: biochemical. As to conditions: NI = No inhibition.
The subject of test [2] is M. fortuitum ATCC 110. Nature of the test: MIC, M. fortuitum ATCC 110. Type of test: cell-based. The note with it: Mycolicibacterium fortuitum, ATCC110.
In test [3] the test system is Pseudomonas aeruginosa (ATCC27853). As to the kind of experiment: microbe, parasite or virus in culture. It is filed as cell-based. As to conditions: read-out: MIC P. aeruginosa ATCC 27853.
Test [4] concerns S. aureus MRSA ATCC 33591. Nature of the test: MIC, S. aureus MRSA ATCC 33591. Type of test: cell-based. As to conditions: Staphylococcus aureus; read-out: MIC S. aureus MRSA ATCC 33591.
In test [5] the test system is Staphylococcus aureus subsp. aureus (ATCC29213). As to the kind of experiment: MIC, broth microdilution (CLSI), Staphylococcus aureus subsp. aureus ATCC29213. It is filed as cell-based. (In general: Broth dilution looks for growth in wells or tubes with falling amounts of substance.)
Test [6] concerns M. phlei ATCC 11758. Nature of the test: MIC, M. phlei ATCC 11758. It is filed as cell-based. As to conditions: Mycolicibacterium phlei, ATCC11758.
Test [7] concerns H. influenzae ATCC 49247. Nature of the test: MIC, H. influenzae ATCC 49247. It is filed as cell-based. As to conditions: Haemophilus influenzae, ATCC49247.
Test [8] has as its system S. pneumoniae ATCC 49619. As to the kind of experiment: MIC, S. pneumoniae ATCC 49619. It is filed as cell-based. As to conditions: Streptococcus pneumoniae, ATCC49619.
For test [9], the system named is Enterococcus faecalis (ATCC29212). Nature of the test: MIC, broth microdilution (CLSI), Enterococcus faecalis ATCC29212. It is filed as cell-based. The note with it: read-out: MIC E. faecalis ATCC 29212.
Test [10] deals with Escherichia coli (ATCC25922). As to the kind of experiment: MIC, broth microdilution (CLSI), Escherichia coli ATCC25922.
Description: Initial minimal inhibitory concentration (MIC) tests were made on two bacterial strains: • Escherichia coli (ATCC25922) • Staphylococcus aureus (ATCC25923).
Minimal Inhibitory Concentration (MIC)
MIC values were determined using the standard broth microdilution procedure based on the guidelines by the Clinical and Laboratory Standards Institute (CLSI). Briefly, the compounds were dissolved in DMSO to 10 mM. They were diluted in cation-adjusted Mueller-Hinton broth (CAMHB) to four times the highest concentration tested. A serial 2-fold dilution in CAMHB was done in microdilution plates. The inoculum of bacterial strain to be tested was prepared by making a suspension of colonies from an 18 to 24 hours old plate in CAMHB. The inoculum was diluted so that, after inoculation, each well contained approximately 5×10^5 CFU/mL. To a volume of 50 μl compound in CAMHB an equal volume of inoculum was added. The tray was sealed in a plastic bag and incubated at 35° C. for 16 to 20 hours. To aid in the detection of growth the dye resazurin was added to a final concentration 0.001% and incubated at room temperature for 1 h. Reduction of resazurin, and therefore bacterial growth, was seen as a change from blue to pink.
The test system of test [11] is P. aeruginosa NTUH-974 (MDR). Nature of the test: MIC, P. aeruginosa NTUH-974 (MDR). Type of test: cell-based. As to conditions: Pseudomonas aeruginosa; read-out: MIC P. aeruginosa NTUH-974 (MDR).
For test [12], the system named is E. coli JW5503. As to the kind of experiment: MIC, E. coli JW5503. It is filed as cell-based. As to conditions: Escherichia coli, JW5503, read-out: MIC E. coli JW5503.
Test [13] deals with E. faecium ATCC 700221. As to the kind of experiment: MIC, E. faecium ATCC 700221. It is filed as cell-based. As to conditions: Enterococcus faecium, ATCC700221; read-out: MIC E. faecium ATCC 700221.
In test [14] the test system is K. pneumoniae ATCC 43816. As to the kind of experiment: MIC, K. pneumoniae ATCC 43816. It is filed as cell-based. The note with it: Klebsiella pneumoniae, ATCC43816.
Test [15] has as its system S. aureus ATCC 29213. As to the kind of experiment: MIC, S. aureus ATCC 29213 + 50% HS. It is filed as cell-based. As to conditions: Staphylococcus aureus, ATCC29213.
Test [16] deals with S. aureus USA300 MRSA BAA 1717. Nature of the test: MIC, S. aureus USA300 MRSA BAA 1717. Type of test: cell-based. As to conditions: Staphylococcus aureus.
Test [17] relates to A. baumannii ATCC 17978. Nature of the test: MIC, A. baumannii ATCC 17978. Type of test: cell-based. The note with it: Acinetobacter baumannii, ATCC17978.
Test [18] has as its system H. pylori ATCC 43504. Nature of the test: MIC, H. pylori ATCC 43504. As to conditions: Helicobacter pylori, ATCC43504. Type of test: cell-based.
Test [19] has as its system N. gonorrhoeae 612501. Nature of the test: MIC, N. gonorrhoeae 612501. As to conditions: Neisseria gonorrhoeae. It is filed as cell-based.
Setting [20] is: ATCC29213, Table 15, read-out: S. aureus ("wound") (MIC).
Setting [21] is: ATCC29213, Table 16, read-out: MIC S. aureus ATCC 29213.
Where [22] appears, read: ATCC25922, read-out: E. coli MIC, Table 15, NI = No inhibition.
Setting [23] is: ATCC25922, read-out: MIC E. coli ATCC 25922, Table 16.

The IC50 is the concentration at which inhibition is half-maximal.

Where two headings read alike, the source gives them in different places.

In test [1], `CC1CC(C)CN(c2ccc3c(c2)Sc2cc(C(F)(F)F)cc(NC4CCN(CCN)CC4)c2N3)C1.Cl.Cl.Cl` (stereo not drawn) [compound 274, N-(1-(2-aminoethyl)piperidin-4-yl)-7-(3,5-dimethyl-piperidin-1-yl)-3-(trifluoromethyl)-10H-phenothiazin-1-amine hydrochloride] gave an IC50 of 24 µM. The MIC was found to be 4 mg/L in [2]; 16 mg/L in [3]; 1 mg/L in [4]; 1 mg/L in [5] (setting [20]); 1 mg/L in [5] (setting [21]); 4 mg/L in test [6]. Also, the MIC in [7] is 1 mg/L; in test [8], 4 mg/L; in test [9], 2 mg/L; in [10] (setting [22]), 8 mg/L; in [10] (setting [23]) it was 4 mg/L; in [11], 16 mg/L. In addition, the MIC came to 8 mg/L in [12]; 1 mg/L in test [13]; 4 mg/L in [14]; 16 mg/L in test [15]; 1 mg/L in test [16]; 4 mg/L in [17]. The figures for the MIC in test [18] and in test [19] were 16 mg/L and 1 mg/L, respectively.

In test [1], `Cl.Cl.NCCN1CCC(Nc2cc(C(F)(F)F)cc3c2Nc2ccc(N4CCCC4)cc2S3)CC1` [compound 284, N-(1-(2-aminoethyl)piperidin-4-yl)-7-(pyrrolidin-1-yl)-3-(trifluoromethyl)-10H-phenothiazin-1-amine hydrochloride] returned an IC50 of 0.89 µM. Moreover, the MIC in test [2] was 8 mg/L; in test [3] it was 32 mg/L; in test [4], 2 mg/L; in [5] (setting [20]), 2 mg/L; in [5] (setting [21]), 2 mg/L; in test [6] it was 4 mg/L. Further, the MIC came out at 8 mg/L in test [7]; 8 mg/L in test [8]; 2 mg/L in test [9]; 8 mg/L in test [10] (setting [22]); 4 mg/L in test [10] (setting [23]); 32 mg/L in test [11]. Moreover, the MIC in [12] stood at 4 mg/L; in test [13] it was 2 mg/L; in [14], 4 mg/L; in test [15], 32 mg/L; in test [16], 2 mg/L; in test [17], 8 mg/L. The MIC came to 32 mg/L in [18] and 2 mg/L in test [19].

Turning to `Cl.NC1CCCC(CNc2cc(C(F)(F)F)cc3c2Nc2ccc(N4CCCC4)cc2S3)C1` (stereo not drawn) [compound 300, N-((3-aminocyclohexyl)methyl)-7-(pyrrolidin-1-yl)-3-(trifluoromethyl)-10H-phenothiazin-1-amine], in [1], the concentration for half-maximal inhibition (IC50) worked out at 1.9 µM. Moreover, the MIC in [2] was 2 mg/L; in test [3] it was over 32 mg/L; in test [4], 1 mg/L; in test [5] (setting [20]), 1 mg/L; in test [5] (setting [21]), 1 mg/L; in [6], 4 mg/L. Also, the MIC is 2 mg/L in test [7]; 4 mg/L in test [8]; 1 mg/L in test [9]; 16 mg/L in test [10] (setting [22]); 4 mg/L in [10] (setting [23]); over 32 mg/L in test [11]. Moreover, the MIC in test [12] turned out to be 2 mg/L; in [13], 1 mg/L; in test [14], 8 mg/L; in [15], 16 mg/L; in test [16] it was 1 mg/L; in test [17] it was 8 mg/L. The MIC in [18] came out at 16 mg/L; in test [19], 1 mg/L.

In [1], `CC1CCCN(c2ccc3c(c2)Sc2cc(C(F)(F)F)cc(NC4CCN(CCN)CC4)c2N3)C1.Cl.Cl` (stereo not drawn) [compound 301, N-(1-(2-aminoethyl)piperidin-4-yl)-7-(3-methyl-piperidin-1-yl)-3-(trifluoromethyl)-10H-phenothiazin-1-amine hydrochloride] returned a half-maximal inhibitory concentration (IC50) of 27 µM. Further, the MIC in test [2] is 4 mg/L; in test [3] it was 16 mg/L; in [4] it was 2 mg/L; in [5] (setting [20]), 2 mg/L; in test [5] (setting [21]) it was 4 mg/L; in [6], 8 mg/L. Moreover, the MIC was 2 mg/L in test [7]; 4 mg/L in [8]; 2 mg/L in test [9]; 4 mg/L in test [10] (setting [22]); 4 mg/L in test [10] (setting [23]); 16 mg/L in [11]. The MIC is 2 mg/L in test [12]; 2 mg/L in [13]; 4 mg/L in test [14]; 16 mg/L in test [15]; 2 mg/L in test [16]; 4 mg/L in [17]. Further, the figures for the MIC in test [18] and in [19] were 8 mg/L and 1 mg/L, respectively.

For the compound `Cl.Cl.NCCNCCC(=O)Nc1cc(C(F)(F)F)cc2c1Nc1ccc(N3CCCC3)cc1S2` [compound 302, 3-((2-aminoethyl)amino)-N-(7-(pyrrolidin-1-yl)-3-(trifluoromethyl)-10H-phenothiazin-1-yl)propanamide hydrochloride], the IC50 in [1] came to 3.6 µM. The MIC in test [2] worked out at 8 mg/L; in test [3], 32 mg/L; in test [4], 8 mg/L; in test [5] (setting [20]), 32 mg/L; in test [5] (setting [21]) it was 8 mg/L; in test [6] it was 16 mg/L. Besides, the MIC in test [7] stood at 16 mg/L; in test [8], 64 mg/L; in test [9], 8 mg/L; in [10] (setting [22]) it was 128 mg/L; in [10] (setting [23]) it was 16 mg/L; in [11] it was 32 mg/L. The MIC in [12] turned out to be 16 mg/L; in [13], 4 mg/L; in test [14] it was 16 mg/L; in test [15] it was 64 mg/L; in test [16], 8 mg/L; in test [17], 32 mg/L. Moreover, the figures for the MIC in [18] and in [19] were 32 mg/L and 8 mg/L, respectively.

As for `CC1(C)CCCN(c2ccc3c(c2)Sc2cc(C(F)(F)F)cc(NC4CCN(CCN)CC4)c2N3)C1.Cl.Cl` [compound 305, N-(1-(2-aminoethyl)piperidin-4-yl)-7-(3,3-dimethyl-piperidin-1-yl)-3-(trifluoromethyl)-10H-phenothiazin-1-amine hydrochloride], half-maximal inhibition in test [1] (IC50) required 2.9 µM. For the same compound, the MIC in test [2] was determined as 4 mg/L; in test [3], 16 mg/L; in [4], 1 mg/L; in test [5] (setting [20]), 2 mg/L; in [5] (setting [21]), 1 mg/L; in test [6], 2 mg/L. For the same compound, the MIC came to 1 mg/L in [7]; 2 mg/L in test [8]; 1 mg/L in test [9]; 4 mg/L in [10] (setting [22]); 4 mg/L in [10] (setting [23]); 16 mg/L in test [11]. The MIC worked out at 4 mg/L in test [12]; 1 mg/L in [13]; 4 mg/L in test [14]; 32 mg/L in test [15]; 1 mg/L in [16]; 4 mg/L in [17]. Besides, the MIC in test [18] is 16 mg/L; in [19], 1 mg/L.

In test [1], `CCN(CC)c1ccc2c(c1)Sc1cc(C(F)(F)F)cc(NC3CCN(CCN)CC3)c1N2.Cl.Cl.Cl` [compound 306, N1-(1-(2-aminoethyl)piperidin-4-yl)-N7,N7-diethyl-3-(trifluoromethyl)-10H-phenothiazine-1,7-diamine hydrochloride] came in with an IC50 of 50 µM. For the same compound, the MIC in [2] came to 4 mg/L; in test [3] it was 32 mg/L; in test [4] it was 2 mg/L; in test [5] (setting [20]), 2 mg/L; in [5] (setting [21]), 2 mg/L; in [6], 8 mg/L. Further, the MIC in test [7] was 8 mg/L; in [8] it was 4 mg/L; in test [9], 4 mg/L; in [10] (setting [22]) it was 4 mg/L; in test [10] (setting [23]), 4 mg/L; in test [11] it was 32 mg/L. The MIC was found to be 2 mg/L in test [12]; 2 mg/L in test [13]; 4 mg/L in test [14]; 8 mg/L in [15]; 2 mg/L in test [16]; 8 mg/L in test [17]. The MIC in test [18] amounted to 32 mg/L; in [19] it was 2 mg/L.
